Source: US20250092031A1, “RIPK3 INHIBITORS AND METHODS OF USE” (Momentum Therapeutics, Inc., priority 2023, published 2025)

Experiments:
Human HT-29 cells = test: Necroptosis inhibition assay in HT-29 cells (hTNFα + zVAD + SMAC mimetic, Sytox Green/Hoechst); format: cell-based; conditions: 10 ng/ml hTNFα, 20 μM zVAD and 100 nM SMAC mimetic, 6 hours, Sytox/Hoechst positive cells, read-out: HT29 necroptosis inhibition IC50
Method in brief: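 Cells stimulated 48 h after seeding with 10 ng/ml hTNFα, 20 μM zVAD and 100 nM SMAC mimetic plus compound, 6 h at 37 °C. Sytox Green and Hoechst positive cells counted by imaging; inhibition scaled between DMSO-treated (100%) and stimulated-only (0%) wells, IC50 by curve fitting.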

RIPK3 = target: T1, RIPK3 (Homo sapiens, UniProt Q9Y572); test: RIPK3 kinase assay (radiometric HotSpot, Reaction Biology Corporation); format: biochemical
T1 construct: purchased Reaction Biology Corporation (RBC), Malvern, USA (contract assay service)
Protocol: The assays were performed in Reaction Biology Corporation (RBC), Malvern, USA. Compounds were diluted with DMSO to a final stock concentration of 10 mM and then were tested in a 10-dose IC50 mode with a 3-fold serial dilution starting at […]. All the reactions were carried out at 10 μM ATP and MBP 20 μM as substrates. RIPK3 activity was determined using radiometric HotSpot™ kinase assay protocol and IC50 values were calculated use GraphPad Prism software.

Murine L929 cells = test: Necroptosis inhibition assay in L929 cells (mTNFα + zVAD, Sytox Green); format: cell-based; conditions: Mus musculus, 10 ng/ml mTNFα and 20 μM zVAD, 6 hours, Sytox Green fluorescence
Method in brief: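 Murine L929 cells, treated 48 h after seeding with 10 ng/ml mTNFα plus 20 μM zVAD and compound ([…]), 6 h at 37° C. Necroptosis read by Sytox Green fluorescence (500ex/530em), scaled between 0.1% DMSO and TNFα+zVAD wells; IC50 from inhibition curves.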

T1 sequence (Q9Y572 whole entry): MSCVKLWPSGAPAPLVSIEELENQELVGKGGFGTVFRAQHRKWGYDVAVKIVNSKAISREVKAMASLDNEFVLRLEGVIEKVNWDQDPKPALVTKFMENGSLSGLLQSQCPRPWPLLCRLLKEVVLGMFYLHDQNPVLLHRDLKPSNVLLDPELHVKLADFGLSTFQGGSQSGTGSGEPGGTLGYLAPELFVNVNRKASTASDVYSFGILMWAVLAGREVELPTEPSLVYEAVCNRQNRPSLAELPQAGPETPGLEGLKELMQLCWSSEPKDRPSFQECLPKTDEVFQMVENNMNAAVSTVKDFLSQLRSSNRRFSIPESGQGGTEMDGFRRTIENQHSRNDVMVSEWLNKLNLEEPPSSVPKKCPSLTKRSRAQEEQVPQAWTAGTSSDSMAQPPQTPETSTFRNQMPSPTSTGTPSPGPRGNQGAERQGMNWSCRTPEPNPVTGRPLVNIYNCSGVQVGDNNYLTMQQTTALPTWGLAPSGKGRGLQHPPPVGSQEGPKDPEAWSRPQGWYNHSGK

Compound	IC50 (RIPK3)	IC50 (Human HT-29 cells)	IC50 (Murine L929 cells)
Fc1cc(CN2CCCC2)ccc1-c1ccc2c(Nc3ccc4scnc4c3)ccnc2c1 [Compound 54, N-(7-(2-fluoro-4-(pyrrolidin-1-ylmethyl)phenyl)quinolin-4-yl)benzo[d]thiazol-5-amine]	0.308 nM	630 nM	201 nM
O=C(c1ccc(-c2ccc3nccc(Nc4ccc5scnc5c4)c3c2)c(F)c1)N1CCNCC1 [Compound 249, (4-(4-(benzo[d]thiazol-5-ylamino)quinolin-6-yl)-3-fluorophenyl)(piperazin-1-yl)methanone]	1.75 nM	67.9 nM	1260 nM
O=C1CN(C(=O)c2ccc(-c3ccc4c(Nc5ccc6scnc6c5)ccnc4c3)c(F)c2)CCN1 [Compound 276, 4-(4-(4-(benzo[d]thiazol-5-ylamino)quinolin-7-yl)-3-fluorobenzoyl)piperazin-2-one]	6.89 nM	538 nM	553 nM
O=C(c1ccc(-c2ccc3c(Nc4ccc5scnc5c4)ccnc3c2)c(F)c1)N1CC2(CNC2)C1 [Compound 284, (4-(4-(benzo[d]thiazol-5-ylamino)quinolin-7-yl)-3-fluorophenyl)(2,6-diazaspiro[3.3]heptan-2-yl)methanone]	1.13 nM	386 nM	960 nM
O=C(c1ccc(-c2ccc3nccc(Nc4ccc5scnc5c4)c3c2)c(F)c1)N1CC2(CNC2)C1 [Compound 285, (4-(4-(benzo[d]thiazol-5-ylamino)quinolin-6-yl)-3-fluorophenyl)(2,6-diazaspiro[3.3]heptan-2-yl)methanone]	3.14 nM	129 nM	2710 nM

Second part, led by results:

IC50 (RIPK3)	Compound	IC50 (Human HT-29 cells)	IC50 (Murine L929 cells)
0.72 nM	O=C(c1ccc(-c2ccc3nccc(Nc4ccc5scnc5c4)c3c2)c(F)c1)N1CCCCC1 [Compound 53, (4-(4-(benzo[d]thiazol-5-ylamino)quinolin-6-yl)-3-fluorophenyl)(piperidin-1-yl)methanone]	705 nM	513 nM
0.029 nM	O=C(c1ccc(-c2ccc3c(Nc4ccc5scnc5c4)ccnc3c2)c(F)c1)N1CCCCC1 [Compound 61, (4-(4-(benzo[d]thiazol-5-ylamino)quinolin-7-yl)-3-fluorophenyl)(piperidin-1-yl)methanone]	94.2 nM	93.3 nM
3.67 nM	Fc1cc(CN2CC3(CNC3)C2)ccc1-c1ccc2nccc(Nc3ccc4scnc4c3)c2c1 [Compound 292, N-(6-(4-((2,6-diazaspiro[3.3]heptan-2-yl)methyl)-2-fluorophenyl)quinolin-4-yl)benzo[d]thiazol-5-amine]	159 nM	1780 nM
